Reference: patent publication US20080063723A1, “ISOTHIAZOLIN-3-ONE-CONTAINING ANTIMICROBIAL COMPOSITION” (priority 2006, published 2008)

What was measured:
Assay type in all cases: cell-based
[1] = system: Aspergillus sp; test: Mold growth on treated Southern Yellow Pine wood samples, Aspergillus
Description: (§1) To determine the effectiveness of compositions containing an alkyl amine in combination with OIT and/or BBIT, such compositions were compared to compositions containing only an alkyl amine or compositions containing only OIT or BBIT. The efficacy of those compositions was shown by applying the compositions to Southern Yellow Pine (SYP) wood samples.
(§2) After the SYP samples were treated with the particular composition to be evaluated, the samples were placed onto a support in an extra depth Petri-dish.
(§3) A fungal spore suspension of two common mold species (Aspergillus and Fusarium) was spread on top of the wood sample. Fungal hyphal growth on the surface of samples was examined under the microscope once every week. The scale based on mycelial coverage of wood surface is as follows:
(§4) To evaluate the effectiveness of the compositions against common species of mold, compositions containing various levels of BBIT, OIT and C12-alkyl amine or a mixture of these components were tested on SYP wood blocks using the testing protocol discussed above. Specifically, compositions shown in Table 2A were applied to the wood blocks to determine anti-fungal efficacy of the compositions.
(§5) It is noted that compositions containing OIT and C12-alkyl amine were obtained by mixing compositions A0 and B0 in the recited ratio. Likewise, compositions containing BBIT and C12-alkyl amine were obtained by mixing compositions A0and C0.

[2] = system: Fusarium sp; test: Mold growth on treated Southern Yellow Pine wood samples, Fusarium
Description: as §1, §2, §3, §4, §5

[3] = system: two common mold species (Aspergillus and Fusarium); test: Mold control on treated wood, overall statements for both molds
Description: as §1, §2, §3, §4
It is noted that compositions containing OIT and C12-alkyl amine were obtained by mixing compositions A0 and B0 in the recited ratio. […]

CCCCn1sc2ccccc2c1=O [BBIT alone, N-n-butyl-1,2-benzisothiazolin-3-one]
Aspergillus sp mycelial coverage ([1]; ratio 1:0, 80 ppm, 1 week): 0 (0%)
Aspergillus sp mycelial coverage ([1]; ratio 1:0, 80 ppm, 2 weeks): 0 (0%)
Aspergillus sp mycelial coverage ([1]; ratio 1:0, 80 ppm, 3 weeks): 0 (0%)
Aspergillus sp mycelial coverage ([1]; ratio 1:0, 80 ppm, 4 weeks): 1 (<10%)
Fusarium sp mycelial coverage ([2]; ratio 1:0, 80 ppm, 1 week): 0 (0%)
Fusarium sp mycelial coverage ([2]; ratio 1:0, 80 ppm, 2 weeks): 0 (0%)
Fusarium sp mycelial coverage ([2]; ratio 1:0, 80 ppm, 3 weeks): 1 (<10%)
Fusarium sp mycelial coverage ([2]; ratio 1:0, 80 ppm, 4 weeks): 1 (<10%)
performance as a moldicide ([3]; concentration of 80 ppm): performed effectively as a moldicide

CCCCCCCCCCCCN(C)C [C12-alkyl amine alone]
Aspergillus sp mycelial coverage ([1]; Table 4, 1000 ppm, 1 week): 0 (0%)
Aspergillus sp mycelial coverage ([1]; Table 4, 1000 ppm, 2 weeks): 2 (˜10-30%)
Aspergillus sp mycelial coverage ([1]; Table 4, 1000 ppm, 3 weeks): 3 (˜30-60%)
Aspergillus sp mycelial coverage ([1]; Table 4, 1000 ppm, 4 weeks): 3 (˜30-60%)
Aspergillus sp mycelial coverage ([1]; ratio 0:1, 1000 ppm, 1 week): 0 (0%)
Aspergillus sp mycelial coverage ([1]; ratio 0:1, 1000 ppm, 2 weeks): 2 (˜10-30%)
Aspergillus sp mycelial coverage ([1]; ratio 0:1, 1000 ppm, 3 weeks): 3 (˜30-60%)
Aspergillus sp mycelial coverage ([1]; ratio 0:1, 1000 ppm, 4 weeks): 3 (˜30-60%)
performance as a moldicide ([1]; used alone, 1000 ppm, against Aspergillus): less effective
Fusarium sp mycelial coverage ([2]; Table 4, 1000 ppm, 1 week): 0, 0, 0, 0 (0%)
Fusarium sp mycelial coverage ([2]; Table 4, 1000 ppm, 2 weeks): 0, 0, 0, 0 (0%)
Fusarium sp mycelial coverage ([2]; Table 4, 1000 ppm, 3 weeks): 0, 0, 0, 0 (0%)
Fusarium sp mycelial coverage ([2]; Table 4, 1000 ppm, 4 weeks): 0, 0, 0, 0 (0%)
Fusarium sp mycelial coverage ([2]; ratio 0:1, 1000 ppm, 1 week): 0, 0, 0, 0 (0%)
Fusarium sp mycelial coverage ([2]; ratio 0:1, 1000 ppm, 2 weeks): 0, 0, 0, 0 (0%)
Fusarium sp mycelial coverage ([2]; ratio 0:1, 1000 ppm, 3 weeks): 0, 0, 0, 0 (0%)
Fusarium sp mycelial coverage ([2]; ratio 0:1, 1000 ppm, 4 weeks): 0, 0, 0, 0 (0%)
performance as a moldicide ([2]; used alone, 1000 ppm, against Fusarium): performed effectively as a moldicide

CCCCCCCCn1sccc1=O [OIT alone, 2-n-octyl-4-isothiazolin-3-one]
Aspergillus sp mycelial coverage ([1]; ratio 1:0, 100 ppm, 1 week): 0 (0%)
Aspergillus sp mycelial coverage ([1]; ratio 1:0, 100 ppm, 2 weeks): 0 (0%)
Aspergillus sp mycelial coverage ([1]; ratio 1:0, 100 ppm, 3 weeks): 1 (<10%)
Aspergillus sp mycelial coverage ([1]; ratio 1:0, 100 ppm, 4 weeks): 1 (<10%)
Fusarium sp mycelial coverage ([2]; ratio 1:0, 100 ppm, 1 week): 0, 0, 0, 0 (0%)
Fusarium sp mycelial coverage ([2]; ratio 1:0, 100 ppm, 2 weeks): 0, 0, 0, 0 (0%)
Fusarium sp mycelial coverage ([2]; ratio 1:0, 100 ppm, 3 weeks): 0, 0, 0, 0 (0%)
Fusarium sp mycelial coverage ([2]; ratio 1:0, 100 ppm, 4 weeks): 0, 0, 0, 0 (0%)
performance as a moldicide ([3]; concentration of 100 ppm): performed effectively as a moldicide
